Test results reported in ChEMBL document CHEMBL1201862, “PubChem BioAssay data set” (2004).
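Briefly, cells in 96-well plates were exposed to five compound concentrations for 48 h, and endpoints were estimated by linear interpolation. GI50 marks 50% less growth.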 Activity calls are given as the source filed them. Rule as the data show it: active = GI50 up to about 1.1 µM and inactive = higher. Peptide text beside a SMILES is read from it. * marks the point of attachment. Boc = CC(C)(C)OC(=O)*

Legend:
Experiment in all cases: NCI anticancer screen, dose series, 48 h
786-0 = system: 786-0
DU-145 = system: DU-145
HOP-92 = system: HOP-92
IGROV-1 = system: IGROV-1
K562 = system: K562
LOX IMVI = system: LOX IMVI
M14 = system: M14
MDA-N = system: MDA-N
NCI-H23 = system: NCI-H23
NCI-H522 = system: NCI-H522
OVCAR-3 = system: OVCAR-3
PC-3 = system: PC-3
RXF 393 = system: RXF 393
SK-MEL-28 = system: SK-MEL-28
SK-MEL-5 = system: SK-MEL-5
SK-OV-3 = system: SK-OV-3
SW-620 = system: SW-620
TK-10 = system: TK-10
U-251 = system: U-251
UACC-257 = system: UACC-257

| SMILES | GI50 (786-0) | GI50 (DU-145) | GI50 (HOP-92) | GI50 (IGROV-1) | GI50 (K562) | GI50 (LOX IMVI) | GI50 (M14) | GI50 (MDA-N) | GI50 (NCI-H23) | GI50 (NCI-H522) | GI50 (OVCAR-3) | GI50 (PC-3) | GI50 (RXF 393) | GI50 (SK-MEL-28) | GI50 (SK-MEL-5) | GI50 (SK-OV-3) | GI50 (SW-620) | GI50 (TK-10) | GI50 (U-251) | GI50 (UACC-257) |
| --- | --- | --- | --- | --- | --- | --- | --- | --- | --- | --- | --- | --- | --- | --- | --- | --- | --- | --- | --- | --- |
| Nc1ncnc2c1nc(Cl)n2C1OC(CO)C(O)C1O (stereo not drawn) | 1.79 µM (inactive) | 0.714 µM (active) | 9.08 µM (inactive) | 0.653 µM (active) | 0.347 µM (active) | 0.424 µM (active) | 0.9 µM (active) | 2.94 µM (inactive) | 1.95 µM (inactive) | 0.546 µM (active) | 2.75 µM (inactive) | 1.44 µM (inactive) | 0.213 µM (active) | > 45.5 µM (inactive) | 3.25 µM (inactive) | 2.74 µM (inactive) | 1.55 µM (inactive) | 0.502 µM (active) | 7.59 µM (inactive) | 4.48 µM (inactive) |
| CNC(=O)C1CCCN1C(=O)C(Cc1c[nH]cn1)NC(=O)C1CCC(=O)N1 (stereo not drawn) | 85.5 µM (inactive) | > 100 µM (inactive) | > 100 µM (inactive) | > 100 µM (inactive) | > 100 µM (inactive) | > 100 µM (inactive) | > 100 µM (inactive) | > 100 µM (inactive) | > 100 µM (inactive) | > 100 µM (inactive) | > 100 µM (inactive) | > 100 µM (inactive) | > 100 µM (inactive) | > 100 µM (inactive) | > 100 µM (inactive) | > 100 µM (inactive) | > 100 µM (inactive) | > 100 µM (inactive) | > 100 µM (inactive) |  |
| O=C1/C(=C\c2ccc([N+](=O)[O-])cc2)CS(=O)(=O)C/C1=C/c1ccc([N+](=O)[O-])cc1 | 0.149 µM (active) | 2.92 µM (inactive) | 1.91 µM (inactive) | 0.641 µM (active) |  | 0.597 µM (active) | 0.74 µM (active) | 0.35 µM (active) | 0.904 µM (active) | 0.277 µM (active) | 0.141 µM (active) | 0.392 µM (active) | 0.482 µM (active) | 1.13 µM (inactive) | 1.4 µM (inactive) | 4.8 µM (inactive) | 0.262 µM (active) | 0.787 µM (active) | 0.298 µM (active) | 1.81 µM (inactive) |
| NC(=S)N/N=C1\CCc2ccccc2C1 | > 100 µM (inactive) | > 100 µM (inactive) | > 100 µM (inactive) | > 100 µM (inactive) | > 100 µM (inactive) | > 100 µM (inactive) | > 100 µM (inactive) | > 100 µM (inactive) | > 100 µM (inactive) | 55.3 µM (inactive) | > 100 µM (inactive) | > 100 µM (inactive) | 80.4 µM (inactive) | > 100 µM (inactive) |  | > 100 µM (inactive) | > 100 µM (inactive) | > 100 µM (inactive) | > 100 µM (inactive) | > 100 µM (inactive) |
| Cc1ccc(NC2=NCCO2)c2c1CCC2 | 56 µM (inactive) | 63.2 µM (inactive) | 27.3 µM (inactive) | 40 µM (inactive) | 26.7 µM (inactive) | 22.8 µM (inactive) | 21 µM (inactive) | 17.6 µM (inactive) | 32.2 µM (inactive) | 45.8 µM (inactive) | 21.6 µM (inactive) | 25.4 µM (inactive) | 26.8 µM (inactive) | 32.8 µM (inactive) | 17.5 µM (inactive) | 41.5 µM (inactive) | 46.9 µM (inactive) | > 100 µM (inactive) | 39.4 µM (inactive) |  |
| COC(CNC(=O)C(C)NC(=O)/C=C/c1ccccc1)OC (stereo not drawn) | > 100 µM (inactive) | > 100 µM (inactive) | > 100 µM (inactive) | > 100 µM (inactive) | > 100 µM (inactive) |  | > 100 µM (inactive) | > 100 µM (inactive) | > 100 µM (inactive) | 62.1 µM (inactive) |  | > 100 µM (inactive) | > 100 µM (inactive) |  | > 100 µM (inactive) | > 100 µM (inactive) | > 100 µM (inactive) | > 100 µM (inactive) | > 100 µM (inactive) | > 100 µM (inactive) |
| CSCCC(NC(=O)C(CC(C)C)NC(=O)CNC(=O)OC(C)(C)C)C(=O)N(C)C (stereo not drawn) (Boc-Gly-Leu-Met-NMe2; configuration not given here) | > 100 µM (inactive) | > 100 µM (inactive) | > 100 µM (inactive) | > 100 µM (inactive) | > 100 µM (inactive) | > 100 µM (inactive) | > 100 µM (inactive) | > 100 µM (inactive) | > 100 µM (inactive) | > 100 µM (inactive) |  | > 100 µM (inactive) | > 100 µM (inactive) | > 100 µM (inactive) | > 100 µM (inactive) | > 100 µM (inactive) | > 100 µM (inactive) | > 100 µM (inactive) | > 100 µM (inactive) | > 100 µM (inactive) |
| Nc1ccc(-c2nc3ccccc3s2)cc1F | 22.6 µM (inactive) | 30.2 µM (inactive) | 45.4 µM (inactive) | < 0.01 µM (active) | 35.6 µM (inactive) | 44.7 µM (inactive) | 26.8 µM (inactive) | 37.2 µM (inactive) | 52.1 µM (inactive) | 20.9 µM (inactive) | 18.5 µM (inactive) | 21.4 µM (inactive) | 27.2 µM (inactive) | 46.6 µM (inactive) | 20 µM (inactive) | 38.5 µM (inactive) | 42.3 µM (inactive) |  | 15.4 µM (inactive) | 39.6 µM (inactive) |
| O=C1/C(=C\c2cccc(Oc3ccccc3)c2)S(=O)(=O)C(c2ccccc2)N1Cc1ccccc1 (stereo not drawn) | 19.6 µM (inactive) | 33 µM (inactive) | 19.3 µM (inactive) |  | 26 µM (inactive) | 25.1 µM (inactive) | 27.4 µM (inactive) | 29.6 µM (inactive) | 28 µM (inactive) | 13.9 µM (inactive) | 13.8 µM (inactive) | 24.7 µM (inactive) | 27 µM (inactive) | 29.8 µM (inactive) | 18.5 µM (inactive) | > 100 µM (inactive) | 40.4 µM (inactive) | 33.6 µM (inactive) | 33.7 µM (inactive) | 22.9 µM (inactive) |
| COC(=O)C1=CS/C(=C2\S[C@@H]3[C@H](S2)[C@H]2C=C[C@@H]3C2)S1 | 92 µM (inactive) | > 100 µM (inactive) | 79.8 µM (inactive) | 39.2 µM (inactive) | 2.74 µM (inactive) | 13.1 µM (inactive) | 48.3 µM (inactive) | 3.49 µM (inactive) | > 100 µM (inactive) |  | 33.2 µM (inactive) | 51.6 µM (inactive) | 29.6 µM (inactive) | 62.7 µM (inactive) | 17.9 µM (inactive) | 47 µM (inactive) | 13.1 µM (inactive) | > 100 µM (inactive) | 8.49 µM (inactive) | 66.5 µM (inactive) |
| COc1ccc2nc(-c3cccc(N(C)C)c3)cc(O)c2c1 | 0.408 µM (active) | 0.384 µM (active) | 0.469 µM (active) | 0.553 µM (active) | 0.242 µM (active) | 0.334 µM (active) |  | 0.0608 µM (active) | 0.111 µM (active) | 0.204 µM (active) | 0.169 µM (active) | 0.362 µM (active) | 0.173 µM (active) | 0.419 µM (active) | 0.211 µM (active) | 0.327 µM (active) | 0.264 µM (active) | 4.74 µM (inactive) | 0.247 µM (active) | 0.485 µM (active) |
